Structures can show the parent of a compound that is named as a salt. Where two headings read alike, the source gives them in different places.
Tests used:
[1] = molecular target: T1, SARS-CoV-2 PLpro (nsp3 1564–1878) (Severe acute respiratory syndrome coronavirus 2, UniProt P0DTD1); experiment: biochemical; set-up: FRET-quenched peptide (Pro3) cleavage by PLpro, 10 min pre-incubation, slope over 20 min, normalised to no-compound control; settings: high concentration screen, read-out: % of control remaining
[2] = molecular target: T1, SARS-CoV-2 PLpro (nsp3 1564–1878); experiment: biochemical; set-up: FRET-quenched peptide (Pro3) cleavage by PLpro, 10 min pre-incubation, slope over 20 min, normalised to no-compound control; settings: low concentration screen, read-out: % of control remaining

CO[C@H]1/C=C/O[C@@]2(C)Oc3c(C)c(O)c4c(O)c(c(/C=N/N5CCN(C)CC5)c(O)c4c3C2=O)NC(=O)/C(C)=C\C=C\[C@H](C)[C@H](O)[C@@H](C)[C@@H](O)[C@@H](C)[C@H](OC(C)=O)[C@@H]1C [Rifampicin] showed a remaining activity at 3.75 µM ([1]; Well no.=1668) of 102%, a remaining activity at 3.75 µM ([1]; Well no.=3138) of 97.7% and a remaining activity at 1.25 µM ([2]; Well no.=1668) of 103%. It also gave a remaining activity at 1.25 µM ([2]; Well no.=3138) of 101%.

For Cc1[nH]c(/C=C2\C(=O)Nc3ccccc32)c(C)c1CCC(=O)O [TSU-68 (SU6668)], the remaining activity at 3.75 µM ([1]; Well no.=4899) was 95.8% and the remaining activity at 1.25 µM ([2]; Well no.=4899) was 99.4%.

With N[C@H](C(=O)O)[C@@H]1CC(Cl)=NO1 [Acivicin] the remaining activity at 3.75 µM ([1]; Well no.=3483) was 97.4% and the remaining activity at 1.25 µM ([2]; Well no.=3483) was 96.9%.

CCC(Sc1nnc2c(n1)[nH]c1ccccc12)C(=O)N1c2ccccc2Sc2ccccc21 (centres unmarked) [10-[2-(5H-[1,2,4]triazino[5,6-b]indol-3-ylsulfanyl)butanoyl]-10H-phenothiazine] showed a remaining activity at 3.75 µM ([1]; Well no.=5509) of 108% and a remaining activity at 1.25 µM ([2]; Well no.=5509) of 110%.

CNC[C@H](O)c1cccc(O)c1 [Phenylephrine hydrochloride] gave a remaining activity at 3.75 µM ([1]; Well no.=958) of 103% and a remaining activity at 1.25 µM ([2]; Well no.=958) of 101%.

Cc1cc(N=Nc2ccc3c(c2)CCC(=O)N3)c(N)cc1O [ZL0420] showed a remaining activity at 3.75 µM ([1]; Well no.=8468) of 95.2% and a remaining activity at 1.25 µM ([2]; Well no.=8468) of 103%.

Work on CC[C@H](CO)Nc1nc(NCc2ccccc2O)c2ncn(C(C)C)c2n1 [Olomoucine II] yielded a remaining activity at 3.75 µM ([1]; Well no.=2523) of 102% and a remaining activity at 1.25 µM ([2]; Well no.=2523) of 99.8%.

Molecule CNc1nc(NCc2ccc(NS(C)(=O)=O)cc2Cl)cc(-c2ccccn2)n1 [TC-G-1008] has a remaining activity at 3.75 µM ([1]; Well no.=7769) of 95.1% and a remaining activity at 1.25 µM ([2]; Well no.=7769) of 98.1%.

Molecule C[C@@H](O)[C@H]1C(=O)N2C(C(=O)O)=C(S[C@@H]3CN[C@H](C(=O)N(C)C)C3)[C@H](C)[C@H]12 [Meropenem] has a remaining activity at 3.75 µM ([1]; Well no.=1973) of 103% and a remaining activity at 1.25 µM ([2]; Well no.=1973) of 103%.

Work on COC(=O)[C@H]1[C@H]2C[C@@H]3c4[nH]c5cc(OC)ccc5c4CCN3C[C@H]2C[C@@H](OC(=O)c2cc(OC)c(OC)c(OC)c2)[C@@H]1OC [Reserpine] yielded a remaining activity at 3.75 µM ([1]; Well no.=3833) of 94.7% and a remaining activity at 1.25 µM ([2]; Well no.=3833) of 97%.

CC(=O)O[C@H]1C[C@@H]2CC[C@@H]3[C@H](CC[C@@]4(C)[C@H]3C[C@H]([N+]3(C)CCCCC3)[C@@H]4OC(C)=O)[C@@]2(C)C[C@@H]1N1CCCCC1 [Vecuronium] was tested, and the remaining activity at 3.75 µM ([1]; Well no.=2014) was 103% and the remaining activity at 1.25 µM ([2]; Well no.=2014) was 103%.

C[C@H](NC(=O)Cc1cc(F)cc(F)c1)C(=O)N[C@@H]1C(=O)N(C)c2ccccc2-c2ccccc21 [YO-01027] gave a remaining activity at 3.75 µM ([1]; Well no.=4687) of 105% and a remaining activity at 1.25 µM ([2]; Well no.=4687) of 101%.

Work on Cc1cc(Nc2ccc(NC(=O)c3ccc(Nc4ccnc5ccccc45)cc3)cc2)nc(N)n1 [SGI-1027] yielded a remaining activity at 3.75 µM ([1]; Well no.=5518) of 102% and a remaining activity at 1.25 µM ([2]; Well no.=5518) of 105%.

Molecule COc1ccc2[nH]c([S@@+]([O-])Cc3ncc(C)c(OC)c3C)nc2c1 [Esomeprazole] has a remaining activity at 3.75 µM ([1]; Well no.=2032) of 106% and a remaining activity at 1.25 µM ([2]; Well no.=2032) of 108%.

With C=C(C)[C@H]1Cc2c(ccc3c2O[C@@H]2COc4cc(OC)c(OC)cc4[C@@H]2C3=O)O1 [Rotenone] the remaining activity at 3.75 µM ([1]; Well no.=1494) was 98.9%, the remaining activity at 3.75 µM ([1]; Well no.=3142) was 98.6% and the remaining activity at 3.75 µM ([1]; Well no.=7122) was 89.8%. For the same molecule, the remaining activity at 1.25 µM ([2]; Well no.=1494) was 97.2%, the remaining activity at 1.25 µM ([2]; Well no.=3142) was 104% and the remaining activity at 1.25 µM ([2]; Well no.=7122) was 91.7%.

For CCOC(=O)[C@H](CCc1ccccc1)N[C@@H](C)C(=O)N1Cc2ccccc2C[C@H]1C(=O)O [Quinapril (hydrochloride)], the remaining activity at 3.75 µM ([1]; Well no.=7828) was 95% and the remaining activity at 1.25 µM ([2]; Well no.=7828) was 96.3%.

CC(C)N(CCCCOCC(=O)O)c1cnc(-c2ccccc2)c(-c2ccccc2)n1 [MRE-269] showed a remaining activity at 3.75 µM ([1]; Well no.=7719) of 105% and a remaining activity at 1.25 µM ([2]; Well no.=7719) of 107%.

N[C@@H](Cc1ccc(O)c(I)c1)C(=O)O [3-Iodo-L-tyrosine] showed a remaining activity at 3.75 µM ([1]; Well no.=919) of 104% and a remaining activity at 1.25 µM ([2]; Well no.=919) of 103%.

O=C1c2c(O)cc(O)cc2O[C@H](c2ccc(O)c(O)c2)[C@H]1O (racemic) was tested, and the remaining activity at 3.75 µM ([1]; Well no.=1527) was 96.7% and the remaining activity at 1.25 µM ([2]; Well no.=1527) was 95.9%.

With C[N+]1(C)[C@@H]2CC[C@H]1C[C@@H](OC(=O)C(CO)c1ccccc1)C2 (some centres unmarked) [Atropine methyl bromide] the remaining activity at 3.75 µM ([1]; Well no.=117) was 96.6% and the remaining activity at 1.25 µM ([2]; Well no.=117) was 100%.

With CN(N=O)C(=O)N[C@@H](C=O)[C@@H](O)[C@H](O)[C@H](O)CO [Streptozocin] the remaining activity at 3.75 µM ([1]; Well no.=3317) was 103% and the remaining activity at 1.25 µM ([2]; Well no.=3317) was 100%.

CC(C)NCC(O)COc1ccc(CC(N)=O)cc1 (centres unmarked) [Atenolol] was tested, and the remaining activity at 3.75 µM ([1]; Well no.=2131) was 104%, the remaining activity at 3.75 µM ([1]; Well no.=7671) was 98.5% and the remaining activity at 1.25 µM ([2]; Well no.=2131) was 103%. It also gave a remaining activity at 1.25 µM ([2]; Well no.=7671) of 97.3%.

CCN(CC)Cc1ccc2cc(COC(=O)Nc3ccc(C(=O)NO)cc3)ccc2c1 [ITF2357 (Givinostat)] was tested, and the remaining activity at 3.75 µM ([1]; Well no.=5110) was 106% and the remaining activity at 1.25 µM ([2]; Well no.=5110) was 102%.

CN(C)CCCN1c2ccccc2CCc2ccc(Cl)cc21 [Clomipramine hydrochloride] showed a remaining activity at 3.75 µM ([1]; Well no.=328) of 98.6% and a remaining activity at 1.25 µM ([2]; Well no.=328) of 101%.

For COc1ccc(CN2CCN(C(c3ccc(F)cc3)c3ccc(F)cc3)CC2)c(OC)c1OC [Lomerizine], the remaining activity at 3.75 µM ([1]; Well no.=1941) was 100% and the remaining activity at 1.25 µM ([2]; Well no.=1941) was 98.3%.

Work on CN(C)Cc1ccc(-c2nc3cccc4c3n2CCNC4=O)cc1 [AG14361] yielded a remaining activity at 3.75 µM ([1]; Well no.=5272) of 97.3% and a remaining activity at 1.25 µM ([2]; Well no.=5272) of 98.1%.

For Cn1cc(-c2ccncc2)c(-c2ccc(OCc3ccc4ccccc4n3)cc2)n1 [PF-2545920], the remaining activity at 3.75 µM ([1]; Well no.=8150) was 95.7% and the remaining activity at 1.25 µM ([2]; Well no.=8150) was 101%.

CN1CCc2cc(Cl)c(O)cc2[C@@H](c2ccccc2)C1 [SCH 23390 (hydrochloride)] showed a remaining activity at 3.75 µM ([1]; Well no.=7813) of 102% and a remaining activity at 1.25 µM ([2]; Well no.=7813) of 109%.

In the case of C[C@@H]1c2cc(O)c(O)cc2CCN1C [N-methyl-R-salsolinol hydrobromide], the remaining activity at 3.75 µM ([1]; Well no.=830) was 101% and the remaining activity at 1.25 µM ([2]; Well no.=830) was 99.6%.

In the case of CCCCC/C=C\C/C=C\C/C=C\C=C\C1CCCC(=O)O1 (racemic), the remaining activity at 3.75 µM ([1]; Well no.=4277) was 102% and the remaining activity at 1.25 µM ([2]; Well no.=4277) was 105%.

Molecule CCCCC1C(=O)N(c2ccccc2)N(c2ccccc2)C1=O [Phenylbutazone] has a remaining activity at 3.75 µM ([1]; Well no.=1303) of 99.3%, a remaining activity at 3.75 µM ([1]; Well no.=2105) of 101% and a remaining activity at 1.25 µM ([2]; Well no.=1303) of 102%. The remaining activity at 1.25 µM ([2]; Well no.=2105) was 101%.

Work on CN(C)c1ccc(O)c2c1C[C@H]1C[C@H]3[C@H](N(C)C)C(O)=C(C(N)=O)C(=O)[C@@]3(O)C(O)=C1C2=O [Minocycline hydrochloride] yielded a remaining activity at 3.75 µM ([1]; Well no.=797) of 102% and a remaining activity at 1.25 µM ([2]; Well no.=797) of 104%.
